Test results: patent publication US7070983B2, “Mutant Pseudomonas putida strains and methods of use thereof” (priority 2003, dated 2006)

Columns and labels:
Type in all cases: cell-based, Pseudomonas putida
parental strain KH146-2 = assay: Antibiotic growth suppression on LB agar
Source text: (§1) Spontaneous streptomycin-resistant (Str), gentamicin-resistant (Gen) or rifampicin-resistant (Rif) mutants were obtained from colonies that grew within 3 days after wild-type cells were spread on LB agar containing various concentrations of antibiotic.
We first isolated a number of spontaneous streptomycin-resistant (Str), gentamicin-resistant (Gen) and rifampicin-resistant (Rif) mutants of P. putida KH146-2. These mutants appeared at a frequency of 10^−5–10^−6 when KH146-2 cells were spread on LB agar containing various amounts of antibiotics. […] Forty mutants resistant to each antibiotic were randomly selected and examined for tolerance to 4-hydroxybenzoic acid (4HBA). 4HBA-tolerant strains, which could grow in the presence of 1% 4HBA, were detected among these antibiotic resistant mutants at a high frequency of 3 to 15% (Table 1). The highest frequency (15%) was detected in the mutants selected with 1000 μg ml^−1 of streptomycin. These 4HBA-tolerant isolates all grew as well as the parent strain on LB agar.

[1] = tested on: strain no. 3 carrying plasmid pYI433 containing the wild-type rpsL gene; assay: Complementation experiment, streptomycin resistance; settings: strain no. 3 carrying pYI433; about the same as wild-type levels
Source text: To clone the rpsL gene, a 0.9-kb DNA region covering whole rpsL was amplified from the chromosomal DNA of P. putida KH146-2 using KDO DNA polymerase (Toyobo Biochemicals, Osaka). Oligonucleotide primers were designed according to the rpoC-rpsL-rpsG sequence of P. putida KT2440 (www.tigr.org); 5′-[…]-3′ (SEQ ID NO:7—nucleotides [nt]−368 to −341 upstream of rpsL) and 5′-[…]-3′ (SEQ ID NO:8—complementary to nt 107 to 135 downstream of rpsL). The amplified DNA fragments were cloned into plasmid pUC118 (Vieira and Messing, (1987) Methods Enzymol 153: 3–11) to confirm the sequence, then excised from the plasmids as a BamHI-SphI fragment using the restriction sites in the multi-cloning sequence of the vector and inserted between the BglII and SphI sites of the E. coli-Pseudomonas shuttle vector pNIT6010 carrying tet^R, a derivative of pNIT6011 (Nishijyo et al. (2001) Mol Microbiol 40:917–931). The resultant plasmid pYI433, as well as vector control pNIT6010, was introduced into the Str mutant no. 3 (str-1) by conjugation using E. coli HB101/pRK2013 as the helper (Comai et al. (1983) Plasmid 10:21–30). Fifty μg ml^−1 of tetracycline was used for selection of transformants.
[…]

[2] = tested on: the eight Str mutants with increased tolerance to 4HBA; assay: Resistance level to streptomycin, Str mutants as a group
Source text: as §1
Streptomycin resistance frequently results from a mutation in the rpsL gene for the ribosomal protein S12 (Hosoya et al., ((1998) Antimirob Agents Chemother 42:204–2047); Inaoka et al., ((2001) J Bacteriol 183:4958–4963); Shima et al., ((1996) J Bacterial 178:7276–7284)). Rifampicin resistance results from a mutation in the rpoB gene (β-subunit of RNA polymerase) (Heep et al., ((1999) Antimicrob Agents Chemother 43:1497–1499); Jin and Gross, ((1988) J Mol Biol 202:45–58); Wichelhaus et al., ((1999) Antimicrob Agents Chemother 43:2813–2816); Hu et al., ((2002) J Bacteriol 184: 3984–3991)). We therefore sequenced and compared the rpsL gene and rpoB gene from the mutants to the wild-type strain.

[3] = tested on: P. putida strain no. 5 (str-1); assay: Resistance level to antibiotic on LB agar; settings: 1 days on LB agar
Source text: as §1

[4] = tested on: P. putida strain no. 8 (str-1); assay: Resistance level to antibiotic on LB agar; settings: 1 days on LB agar
Source text: as §1

[5] = tested on: P. putida strain no. 10 (str-1); assay: Resistance level to antibiotic on LB agar; settings: 1 days on LB agar
Source text: as §1

[6] = tested on: P. putida strain no. 9 (str-2); assay: Resistance level to antibiotic on LB agar; settings: 1 days on LB agar
Source text: as §1

[7] = tested on: P. putida strain no. 2 (str-1); assay: Resistance level to antibiotic on LB agar; settings: 1 days on LB agar
Source text: as §1

[8] = tested on: P. putida strain no. 3 (str-1); assay: Resistance level to antibiotic on LB agar; settings: 1 days on LB agar
Source text: as §1

[9] = tested on: P. putida strain no. 6 (str-1); assay: Resistance level to antibiotic on LB agar; settings: 1 days on LB agar
Source text: as §1

[10] = tested on: P. putida strain no. 4 (str-1); assay: Resistance level to antibiotic on LB agar; settings: 1 days on LB agar
Source text: as §1

[H]/N=C(/N)N[C@H]1[C@H](O)[C@@H](O)[C@H](O[C@@H]2O[C@@H](C)[C@](O)(C=O)[C@H]2O[C@@H]2O[C@@H](CO)[C@H](O)[C@@H](O)[C@@H]2NC)[C@@H](N/C(N)=N\[H])[C@@H]1O [streptomycin]
Concentration completely suppressing growth (parental strain KH146-2): 100 µg/mL | levels of Str (streptomycin resistance) [1]: 100 to 200 µg/mL | level of resistance to streptomycin [2]: > 100 mg/mL | resistance compared to the wild-type strain [2]: > 1000 fold | Resistance level to antibiotic [3]: >100,000 (STR) μg ml^−1 | Resistance level to antibiotic [4]: >100,000 (STR) μg ml^−1 | Resistance level to antibiotic [5]: >100,000 (STR) μg ml^−1 | Resistance level to antibiotic [6]: >100,000 (STR) μg ml^−1 | Resistance level to antibiotic [7]: >100,000 (STR) μg ml^−1 | Resistance level to antibiotic [8]: >100,000 (STR) μg ml^−1 | Resistance level to antibiotic [9]: >100,000 (STR) μg ml^−1 | Resistance level to antibiotic [10]: >100,000 (STR) μg ml^−1
